Series [1] deals with reticulocytes. Put plainly: Plasma reticulocyte counting by flow cytometry. Format: in vivo. To be noted: mice; day 6 post-administration. On the procedure: (§1) mRNA diluted in 50 mM citrate buffer (pH 4) and lipid mix (37.5 mM in ethanol) containing 50 mol % SM-102, 10 mol % DSPC, 38.5 mol % Cholesterol, and 1.5 mol % DMG-PEG2000 were assembled into LNP using a NanoAssemblr Spark instrument [Precision Nanosystems]. Upon formulation, mRNA-LNPs were diluted in 12 mL 1×PBS solution and the buffer was exchanged by concentrating with a 30 kDa spin filter [MilliporeSigma, UFC901008] to remove residue ethanol. Concentrations and encapsulation efficiency of mRNA were determined using Quant-it RiboGreen RNA Assay Kit [ThermoFisher, R11490]. 1 μg NanoLuc or hEPO mRNA-LNP in a total volume of 100 μL was injected through retro orbital injection into each mouse. Four mice were used for each condition of each experiment (NanoLuc imaging, hEPO ELISA, and reticulocyte counting). For NanoLuc imaging, PBS injection was used as negative control. For hEPO/reticulocyte experiments, poly(C)-LNP complex was used as negative control.
10 μL […] sample was added into 1 mL of the Reticulocyte Reagent [BD Bioscience] at the indicated time points and the mixture was incubated at room temperature for 30 minutes with protection from light. The samples were analyzed with Beckman CytoFLEX LX Flow Cytometer with 100,000-event records for each sample. Thiazole orange positive cells are defined as reticulocytes.
Background: A flow cytometer gives signals particle by particle.

Series [2] concerns plasma tumor necrosis factor alpha (TNF-α). Also on record: species or system mice. To be noted: mouse, in vivo. On the procedure: (§2) To evaluate the in vivo toxicity and immune response, plasma collected on day 7 post mRNA-LNP administration for the hEPO group. ALT and TNF-alpha were measured using ELISA kits for ALT [G-Biosciences, IT5508] and TNF-alpha [R&D Systems, MTA00B] per manufacturer's protocols.

Series [3] is described as follows: Quantification of plasma hEPO by ELISA after mRNA-LNP injection. In kind it is in vivo. The following applies: mice, hEPO mRNA-LNP retro-orbital. On the procedure:
All animal procedures followed animal care guidelines approved by the Institutional Animal Care and Use Committee (IACUC) of the Broad Institute of MIT and Harvard under animal protocol #0255-08-19. Animal experiments were conducted in compliance with IACUC policies and NIH guidelines. The BALB/cj (male, 6~8 weeks old) mice used for in vivo NanoLuc assay in this study were purchased from The Jackson Laboratory (JAX). The C57BL/6 mice (female, 7 weeks old), used for hEPO assay in this study were purchased from The Jackson Laboratory (JAX).
as §1
At the indicated time points, approximately 100 μL of blood was collected with EDTA-coated capillary tubes from each mouse and then transferred to an EDTA-coated tube. The collected blood samples were centrifuged at 2000 g for 10 min, followed by transferring the resulting plasma into another tube. The hEPO levels in the plasma samples were measured by Human Erythropoietin (EPO) ELISA kit [LEGEND MAX, 442907]. Final concentrations for hEPO were adjusted based on the volume and dilution fold.
(ELISA stands for enzyme-linked immunosorbent assay.)

For series [4], the system named is plasma alanine transaminase (ALT). The experiment in a line: In vivo toxicity assay: plasma ALT ELISA. The following applies: mice; hEPO mRNA-LNP groups. On the procedure: as §2

As for “construct S20: hEPO mRNA, two LNAm7G caps, LNA-2OMe 5′ UTR, PS-2MOE_ddC tail, in LNP (SEQ ID NO: 137) (AGATAAATAAAAAA; mRNA with two LNA-m7G caps, LNA/2'-OMe UTR, PS-MOE ddC tail, in LNP, further chemistry not given here)”, in series [1], the “Increase in reticulocyte counts compared to poly(C)-LNP-treated group” value is on record as 64% and the “Reticulocytes, % of total red blood cells” value came out at 6.4±0.2%. For the same substance, the “Plasma TNF-α (immunogenicity)” value in series [2] is “No significant changes”. Besides, in series [3], the “Plasma hEPO expression remained detectable until” value worked out at 6 days and the “Time of peak plasma hEPO expression” value stood at 6 h. The “Peak plasma hEPO expression” value in series [3] (6 hours) was 6009±578 mlU/mL. Further, the “Plasma ALT (toxicity)” value in series [4] is recorded as “No significant changes”.

These data come from patent publication US20260263638A1, “COMPOSITIONS AND METHODS TO IMPROVE RNA PROPERTIES USING BASE, PHOSPHODIESTER LINKAGE, SUGAR BACKBONE, AND CAP MODIFICATIONS” (The Broad Institute, Inc., priority 2023, published 2026).
